Test results as given in ChEMBL document CHEMBL1201862, “PubChem BioAssay data set” (2004).
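48-hour exposure; five concentrations; linearly interpolated endpoints. GI50: concentration for 50% inhibition of growth.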 Activity calls are given as the source filed them. Rule as the data show it: active = GI50 up to about 1.1 µM and inactive = higher.

Assays:
Assay in all cases: NCI tumour cell line growth inhibition, 48 h
[1] = tested on: MCF7
[2] = tested on: HCT-15
[3] = tested on: MDA-MB-435
[4] = tested on: M14
[5] = tested on: LOX IMVI
[6] = tested on: Malme-3M
[7] = tested on: ACHN
[8] = tested on: 786-0
[9] = tested on: UO-31
[10] = tested on: OVCAR-5
[11] = tested on: SF-295
[12] = tested on: NCI-H522
[13] = tested on: U-251
[14] = tested on: SR
[15] = tested on: HOP-62
[16] = tested on: UACC-257
[17] = tested on: NCI-H460
[18] = tested on: RXF 393
[19] = tested on: BT-549
[20] = tested on: SNB-19
[21] = tested on: NCI/ADR-RES
[22] = tested on: OVCAR-3
[23] = tested on: SK-OV-3
[24] = tested on: NCI-H23
[25] = tested on: SN12C
[26] = tested on: SF-539
[27] = tested on: HOP-92
[28] = tested on: MOLT-4
[29] = tested on: HL-60
[30] = tested on: T47D
[31] = tested on: SK-MEL-5
[32] = tested on: A549
[33] = tested on: PC-3
[34] = tested on: RPMI-8226
[35] = tested on: CCRF-CEM
[36] = tested on: EKVX
[37] = tested on: KM12
[38] = tested on: SF-268
[39] = tested on: SW-620
[40] = tested on: DU-145
[41] = tested on: UACC-62
[42] = tested on: OVCAR-4
[43] = tested on: A498
[44] = tested on: HCT-116
[45] = tested on: COLO 205
[46] = tested on: HT-29
[47] = tested on: SK-MEL-2
[48] = tested on: SK-MEL-28
[49] = tested on: Hs-578T
[50] = tested on: NCI-H226
[51] = tested on: CAKI-1
[52] = tested on: K562
[53] = tested on: MDA-MB-231
[54] = tested on: HCC 2998
[55] = tested on: OVCAR-8
[56] = tested on: IGROV-1
[57] = tested on: TK-10
[58] = tested on: SNB-75
[59] = tested on: MDA-N

## COC(=O)C1=C(C)NC(C)=C(C(=O)OC)C1c1ccccc1NO
[1]
  GI50: > 100 µM (inactive)
[2]
  GI50: > 100 µM
[3]
  GI50: 47.2 µM (inactive)
[4]
  GI50: > 100 µM (inactive)
[5]
  GI50: 40 µM (inactive)
[6]
  GI50: > 100 µM (inactive)
[7]
  GI50: > 100 µM (inactive)
[8]
  GI50: > 100 µM (inactive)
[9]
  GI50: > 100 µM (inactive)
[10]
  GI50: > 100 µM (inactive)
[11]
  GI50: > 100 µM (inactive)
[12]
  GI50: > 100 µM (inactive)
[13]
  GI50: > 100 µM (inactive)
[14]
  GI50: 28.4 µM (inactive)
[15]
  GI50: > 100 µM (inactive)
[16]
  GI50: > 100 µM (inactive)
[17]
  GI50: > 100 µM (inactive)
[18]
  GI50: > 100 µM (inactive)
[19]
  GI50: > 100 µM (inactive)
[20]
  GI50: > 100 µM (inactive)
[21]
  GI50: > 100 µM (inactive)
[22]
  GI50: > 100 µM (inactive)
[23]
  GI50: > 100 µM (inactive)
[24]
  GI50: > 100 µM (inactive)
[25]
  GI50: > 100 µM (inactive)
[26]
  GI50: > 100 µM (inactive)
[27]
  GI50: > 100 µM (inactive)
[28]
  GI50: 27.4 µM (inactive)
[29]
  GI50: > 100 µM (inactive)
[30]
  GI50: > 100 µM (inactive)
[31]
  GI50: > 100 µM (inactive)
[32]
  GI50: > 100 µM (inactive)
[33]
  GI50: > 100 µM (inactive)
[34]
  GI50: 48.9 µM (inactive)
[35]
  GI50: 68.5 µM (inactive)
[36]
  GI50: > 100 µM (inactive)
[37]
  GI50: > 100 µM (inactive)
[38]
  GI50: > 100 µM (inactive)
[39]
  GI50: 68.1 µM (inactive)
[40]
  GI50: > 100 µM (inactive)
[41]
  GI50: > 100 µM (inactive)
[42]
  GI50: > 100 µM (inactive)
[43]
  GI50: > 100 µM (inactive)
[44]
  GI50: 21.9 µM (inactive)
[45]
  GI50: > 100 µM (inactive)
[46]
  GI50: > 100 µM (inactive)
[47]
  GI50: > 100 µM (inactive)
[48]
  GI50: > 100 µM (inactive)
[49]
  GI50: > 100 µM (inactive)
[50]
  GI50: > 100 µM (inactive)
[51]
  GI50: > 100 µM (inactive)
[52]
  GI50: 20.1 µM (inactive)
[53]
  GI50: 65.6 µM (inactive)
[54]
  GI50: > 100 µM (inactive)
[55]
  GI50: > 100 µM (inactive)
[56]
  GI50: > 100 µM (inactive)
[57]
  GI50: > 100 µM (inactive)

## Nc1cc(OCC2CCCCC2)nc(N)n1
[2]
  GI50: > 100 µM
[3]
  GI50: > 100 µM (inactive)
[4]
  GI50: > 100 µM (inactive)
[5]
  GI50: > 100 µM (inactive)
[6]
  GI50: > 100 µM (inactive)
[7]
  GI50: > 100 µM (inactive)
[8]
  GI50: > 100 µM (inactive)
[9]
  GI50: > 100 µM (inactive)
[10]
  GI50: > 100 µM (inactive)
[11]
  GI50: > 100 µM (inactive)
[12]
  GI50: > 100 µM (inactive)
[13]
  GI50: > 100 µM (inactive)
[15]
  GI50: > 100 µM (inactive)
[16]
  GI50: 76.9 µM (inactive)
[17]
  GI50: > 100 µM (inactive)
[18]
  GI50: > 100 µM (inactive)
[19]
  GI50: > 100 µM (inactive)
[20]
  GI50: > 100 µM (inactive)
[21]
  GI50: > 100 µM (inactive)
[22]
  GI50: > 100 µM (inactive)
[23]
  GI50: > 100 µM (inactive)
[24]
  GI50: 84.5 µM (inactive)
[25]
  GI50: > 100 µM (inactive)
[26]
  GI50: > 100 µM (inactive)
[27]
  GI50: > 100 µM (inactive)
[28]
  GI50: 82.2 µM (inactive)
[29]
  GI50: > 100 µM (inactive)
[31]
  GI50: 37.5 µM (inactive)
[32]
  GI50: 93.8 µM (inactive)
[33]
  GI50: > 100 µM (inactive)
[34]
  GI50: > 100 µM (inactive)
[35]
  GI50: > 100 µM (inactive)
[36]
  GI50: 57.1 µM (inactive)
[37]
  GI50: > 100 µM (inactive)
[38]
  GI50: > 100 µM (inactive)
[39]
  GI50: > 100 µM (inactive)
[40]
  GI50: > 100 µM (inactive)
[41]
  GI50: > 100 µM (inactive)
[58]
  GI50: 61.2 µM (inactive)
[42]
  GI50: > 100 µM (inactive)
[44]
  GI50: > 100 µM (inactive)
[45]
  GI50: 87.3 µM (inactive)
[46]
  GI50: > 100 µM (inactive)
[47]
  GI50: > 100 µM (inactive)
[48]
  GI50: > 100 µM (inactive)
[49]
  GI50: > 100 µM (inactive)
[50]
  GI50: > 100 µM (inactive)
[59]
  GI50: > 100 µM (inactive)
[51]
  GI50: > 100 µM (inactive)
[52]
  GI50: > 100 µM (inactive)
[53]
  GI50: > 100 µM (inactive)
[54]
  GI50: > 100 µM (inactive)
[55]
  GI50: > 100 µM (inactive)
[56]
  GI50: 67.9 µM (inactive)
[57]
  GI50: > 100 µM (inactive)
